Legend:
Test in all cases: Intracellular Ca2+ measurement (fura-2), T-REx-293 cells transiently transfected
Assay type in all cases: cell-based
R2335Q hPIEZO1 = molecular target: T1, R2335Q hPIEZO1 (Homo sapiens, UniProt Q92508, R2335Q); settings: 1 μM Y1, versus WT
T1 construct: expressed in transfected cells; host or cells: T-REx-293 (modified HEK293), transient
Procedure: (§1) HEK 293 cell line was transiently transfected at 90% confluence using Lipofectamine 2000 (Invitrogen) in OptiMEM (Gibco). Briefly: 500 ng endotoxin-free DNA per 100μL OptiMEM was prepared alongside 3μL Lipofectamine 2000 per 100μL OptiMEM (Gibco). Both were incubated for 5 min and then mixed, and then incubated at room temperature (21°C–24°C) for 20–30 min. Finally, the transfection mix was gently added dropwise to the cells and the cells were placed in a humidified incubator at 37°C supplied with 5% CO2 for 5 h. Medium was replaced afterward, and cells were used for experimentation 48 h after transfection.
(§2) For intracellular Ca^2+ assays, cells were plated at 80–90% confluence in 96-well plates 24 h prior to recordings (6–8 × 10^4 cells per well). […] Cells were washed with SBS and incubated at room temperature for 20 min prior to recordings. Equal volumes of 2x concentrated compounds were injected to test for acute channel activation. Pre-incubation with compounds occurred during the 20 min prior to recordings. To expose cell membranes to hypo-osmolality, an equal volume of hypotonic SBS (containing only 35 mM NaCl) was injected onto the cells. Measurements were made on a fluorescence plate reader (Flexstation III, Molecular Devices) at room temperature (21 ± 2°C). Fura-2 was excited at 340 nm and 380 nm and emitted light collected at 510 nm, with measurements shown as the change in fluorescence (F) ratio (ΔF340/380).
(§3) KC41 (Dooku1) was prepared as described.[28] All purchased chemicals and solvents were used without further purification unless otherwise stated. All compounds were at least 95% pure by 1H NMR. 1H Nuclear Magnetic Resonance spectra were recorded at 500 MHz using a Bruker DRX 500 instrument or at 400 MHz using a Bruker DPX 400. 1H spectra are referenced based on the residual proton in the solvent (e.g., the CHCl3, 0.01% in 99.99% CDCl3). Coupling constants (J) are reported to the nearest 0.1 Hz. 13C NMR spectra were recorded at 125 MHz on 500 MHz spectrometers or at 100 MHz on 400 MHz spectrometers. LC-MS was performed on a Bruker Daltronics running a gradient of increasing acetonitrile (5–95%) in H2O both containing 0.1% formic acid at 1 mL.min^−1, on a short path C18 reverse phase column, detecting compounds with both a diode array detector and a Bruker mass spectrum analyser. HRMS was performed on a Bruker Daltonics micrOTOF using positive electrospray ionisation (ES+). Automated column chromatograph was carried out using a Biotage Isolera Four, using either Sfär Silica D or KP-Silica cartridges. HPLC was performed on an Agilent 1290 Infinity Series equipped with a UV detector and Hyperprep C18 reverse phase column. Key to NMR abbreviations: s (singlet), br s (broad singlet) d (doublet), dd (doublet of doublets), ddd (doublet of doublets of doublets), t (triplet), dt (doublet of triples), q (quartet), m (multiplet), ap. t (apparent triplet). For experiments, Yoda1 and its analogues were prepared as 10 mM stock solutions in 100% dimethyl sulfoxide (DMSO) before serial dilution in DMSO and final dilution in aqueous solution. Cells were exposed to 0.1% DMSO for all concentrations of the compounds from 0 to 10 μM.

E829V hPIEZO1 = molecular target: T2, E829V hPIEZO1 (Homo sapiens, UniProt Q92508, E829V); settings: 1 μM Y1, versus WT
T2 construct: expressed in transfected cells; host or cells: T-REx-293 (modified HEK293), transient
Procedure: as §1, §2, §3

G1978D hPIEZO1 = molecular target: T3, G1978D hPIEZO1 (Homo sapiens, UniProt Q92508, G1978D); settings: 1 μM Y1, versus WT
T3 construct: expressed in transfected cells; host or cells: T-REx-293 (modified HEK293), transient
Procedure: as §1, §2, §3

I2270T hPIEZO1 = molecular target: T4, I2270T hPIEZO1 (Homo sapiens, UniProt Q92508, I2270T)
T4 construct: expressed in transfected cells; host or cells: T-REx-293 (modified HEK293), transient
Procedure: as §1, §2, §3

WT hPIEZO1 = molecular target: T5, WT hPIEZO1 (Homo sapiens, UniProt Q92508); settings: 1 μM
T5 construct: expressed in transfected cells; host or cells: T-REx-293 (modified HEK293), transient
Procedure: as §1, §2, §3

T4 sequence (Q92508 whole entry I2270T): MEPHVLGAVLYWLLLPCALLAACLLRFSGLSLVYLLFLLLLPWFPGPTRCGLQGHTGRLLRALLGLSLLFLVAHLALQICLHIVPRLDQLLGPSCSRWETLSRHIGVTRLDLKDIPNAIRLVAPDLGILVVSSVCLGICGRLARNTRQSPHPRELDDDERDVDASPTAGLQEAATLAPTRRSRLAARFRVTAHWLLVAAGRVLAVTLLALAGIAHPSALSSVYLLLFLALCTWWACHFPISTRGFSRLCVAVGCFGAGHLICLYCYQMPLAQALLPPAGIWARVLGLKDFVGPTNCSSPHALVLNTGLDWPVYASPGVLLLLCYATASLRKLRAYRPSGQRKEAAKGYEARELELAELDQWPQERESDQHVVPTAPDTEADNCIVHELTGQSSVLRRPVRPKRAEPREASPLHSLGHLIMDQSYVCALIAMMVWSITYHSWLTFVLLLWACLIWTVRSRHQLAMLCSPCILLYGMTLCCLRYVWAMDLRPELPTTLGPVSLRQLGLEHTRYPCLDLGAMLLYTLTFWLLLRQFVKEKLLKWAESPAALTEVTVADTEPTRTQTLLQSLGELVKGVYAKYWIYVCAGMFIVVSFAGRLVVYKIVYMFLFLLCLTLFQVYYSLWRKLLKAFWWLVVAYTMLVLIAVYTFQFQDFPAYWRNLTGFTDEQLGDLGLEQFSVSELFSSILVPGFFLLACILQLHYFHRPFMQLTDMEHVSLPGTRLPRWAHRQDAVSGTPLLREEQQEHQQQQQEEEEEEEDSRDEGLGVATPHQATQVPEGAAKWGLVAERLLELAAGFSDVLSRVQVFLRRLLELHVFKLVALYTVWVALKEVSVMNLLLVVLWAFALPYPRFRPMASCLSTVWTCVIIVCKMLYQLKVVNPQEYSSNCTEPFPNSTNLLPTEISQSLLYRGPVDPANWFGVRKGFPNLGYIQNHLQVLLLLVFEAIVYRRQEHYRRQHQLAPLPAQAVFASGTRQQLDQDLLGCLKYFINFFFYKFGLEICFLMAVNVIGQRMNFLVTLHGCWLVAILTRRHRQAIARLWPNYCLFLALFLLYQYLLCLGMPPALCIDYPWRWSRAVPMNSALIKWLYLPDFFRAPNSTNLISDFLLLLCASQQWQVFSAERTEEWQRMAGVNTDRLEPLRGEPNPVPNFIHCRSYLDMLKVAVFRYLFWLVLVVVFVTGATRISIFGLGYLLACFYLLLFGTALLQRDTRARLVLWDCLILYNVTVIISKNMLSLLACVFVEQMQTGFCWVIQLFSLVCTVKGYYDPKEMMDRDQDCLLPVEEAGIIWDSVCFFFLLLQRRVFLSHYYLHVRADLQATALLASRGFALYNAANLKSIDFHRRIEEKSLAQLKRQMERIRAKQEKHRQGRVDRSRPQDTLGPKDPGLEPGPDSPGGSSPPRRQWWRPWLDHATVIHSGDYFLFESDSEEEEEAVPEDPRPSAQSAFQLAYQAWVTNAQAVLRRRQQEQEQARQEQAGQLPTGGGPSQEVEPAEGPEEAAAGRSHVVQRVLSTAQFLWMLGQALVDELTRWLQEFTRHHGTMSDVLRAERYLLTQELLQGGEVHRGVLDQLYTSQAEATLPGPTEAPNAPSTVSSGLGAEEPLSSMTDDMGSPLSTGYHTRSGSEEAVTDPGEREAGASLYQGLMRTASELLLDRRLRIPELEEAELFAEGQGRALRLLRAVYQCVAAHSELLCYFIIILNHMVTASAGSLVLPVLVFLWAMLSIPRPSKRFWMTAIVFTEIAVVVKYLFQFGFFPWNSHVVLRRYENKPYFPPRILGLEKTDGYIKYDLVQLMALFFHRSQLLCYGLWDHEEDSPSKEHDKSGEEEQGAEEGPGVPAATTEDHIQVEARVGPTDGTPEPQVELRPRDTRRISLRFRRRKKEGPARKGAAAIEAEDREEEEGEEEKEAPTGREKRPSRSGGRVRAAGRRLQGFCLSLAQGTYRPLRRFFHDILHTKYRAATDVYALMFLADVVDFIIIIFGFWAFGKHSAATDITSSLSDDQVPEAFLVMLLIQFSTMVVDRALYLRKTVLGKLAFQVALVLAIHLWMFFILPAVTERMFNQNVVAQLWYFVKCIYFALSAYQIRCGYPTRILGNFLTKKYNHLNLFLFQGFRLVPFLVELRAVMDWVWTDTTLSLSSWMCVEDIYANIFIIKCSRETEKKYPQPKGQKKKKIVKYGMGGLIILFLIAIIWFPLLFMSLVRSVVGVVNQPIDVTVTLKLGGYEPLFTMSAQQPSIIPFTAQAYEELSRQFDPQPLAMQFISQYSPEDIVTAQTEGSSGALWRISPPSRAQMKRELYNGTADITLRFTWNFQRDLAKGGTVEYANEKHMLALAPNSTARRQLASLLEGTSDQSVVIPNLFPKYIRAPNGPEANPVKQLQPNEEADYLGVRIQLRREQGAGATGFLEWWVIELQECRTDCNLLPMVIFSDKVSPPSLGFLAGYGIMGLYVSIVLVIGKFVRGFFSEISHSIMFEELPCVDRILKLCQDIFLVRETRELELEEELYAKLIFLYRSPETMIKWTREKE
T5 sequence (Q92508 whole entry): as the sequence (Q92508 whole entry I2270T) above, with T2270I counted along it
T1 sequence (Q92508 whole entry R2335Q): as the sequence (Q92508 whole entry I2270T) above, with T2270I, R2335Q counted along it
T3 sequence (Q92508 whole entry G1978D): as the sequence (Q92508 whole entry I2270T) above, with G1978D, T2270I counted along it
T2 sequence (Q92508 whole entry E829V): as the sequence (Q92508 whole entry I2270T) above, with E829V, T2270I counted along it

Effect on hPIEZO1 channel function (R2335Q hPIEZO1): reduced 1 μM Y1 effect
Effect on hPIEZO1 channel function (E829V hPIEZO1): reduced 1 μM Y1 effect
Effect on hPIEZO1 channel function (G1978D hPIEZO1): reduced 1 μM Y1 effect
Effect on hPIEZO1 channel function (I2270T hPIEZO1; 1 μM Y1, versus WT): loss of MA: LOF; reduced 1 μM Y1 effect
Ca2+ signal 30-60 s after application, normalized to WT, vector control subtracted, Mean (I2270T hPIEZO1; 1 μM, n = 4): 0.1013
fluorescence (ΔFratio) (I2270T hPIEZO1; 1 μM, time 0 s): 6.26E-04
fluorescence (ΔFratio) (I2270T hPIEZO1; 1 μM, time 5 s): -0.00991
fluorescence (ΔFratio) (I2270T hPIEZO1; 1 μM, time 10 s): -0.00857
fluorescence (ΔFratio) (I2270T hPIEZO1; 1 μM, time 15 s): 0.00155
fluorescence (ΔFratio) (I2270T hPIEZO1; 1 μM, time 20 s): 0.00344
fluorescence (ΔFratio) (I2270T hPIEZO1; 1 μM, time 25 s): 0.01286
fluorescence (ΔFratio) (I2270T hPIEZO1; 1 μM, time 30 s): -0.01023
fluorescence (ΔFratio) (I2270T hPIEZO1; 1 μM, time 35 s): -0.00138
fluorescence (ΔFratio) (I2270T hPIEZO1; 1 μM, time 40 s): 0.07241
fluorescence (ΔFratio) (I2270T hPIEZO1; 1 μM, time 45 s): 0.05056
fluorescence (ΔFratio) (I2270T hPIEZO1; 1 μM, time 50 s): 0.06632
fluorescence (ΔFratio) (I2270T hPIEZO1; 1 μM, time 55 s): 0.05818
fluorescence (ΔFratio) (I2270T hPIEZO1; 1 μM, time 60 s): 0.06863
fluorescence (ΔFratio) (I2270T hPIEZO1; 1 μM, time 65 s): 0.05602
fluorescence (ΔFratio) (I2270T hPIEZO1; 1 μM, time 70 s): 0.06799
fluorescence (ΔFratio) (I2270T hPIEZO1; 1 μM, time 75 s): 0.05186
fluorescence (ΔFratio) (I2270T hPIEZO1; 1 μM, time 80 s): 0.04949
fluorescence (ΔFratio) (I2270T hPIEZO1; 1 μM, time 85 s): 0.05597
fluorescence (ΔFratio) (I2270T hPIEZO1; 1 μM, time 90 s): 0.06467
fluorescence (ΔFratio) (I2270T hPIEZO1; 1 μM, time 95 s): 0.02814
fluorescence (ΔFratio) (I2270T hPIEZO1; 1 μM, time 100 s): 0.04731
fluorescence (ΔFratio) (I2270T hPIEZO1; 1 μM, time 105 s): 0.04051
fluorescence (ΔFratio) (I2270T hPIEZO1; 1 μM, time 110 s): 0.04381
fluorescence (ΔFratio) (I2270T hPIEZO1; 1 μM, time 115 s): 0.05647
fluorescence (ΔFratio) (I2270T hPIEZO1; 1 μM, time 120 s): 0.06513
fluorescence (ΔFratio) (I2270T hPIEZO1; 1 μM, time 125 s): 0.04171
fluorescence (ΔFratio) (WT hPIEZO1; time 0 s): -0.01302
fluorescence (ΔFratio) (WT hPIEZO1; time 5 s): -0.00371
fluorescence (ΔFratio) (WT hPIEZO1; time 10 s): 0.00261
fluorescence (ΔFratio) (WT hPIEZO1; time 15 s): 0.01821
fluorescence (ΔFratio) (WT hPIEZO1; time 20 s): -9.97E-05
fluorescence (ΔFratio) (WT hPIEZO1; time 25 s): -0.004
fluorescence (ΔFratio) (WT hPIEZO1; time 30 s): -0.05053
fluorescence (ΔFratio) (WT hPIEZO1; time 35 s): 0.02247
fluorescence (ΔFratio) (WT hPIEZO1; time 40 s): 0.1718
fluorescence (ΔFratio) (WT hPIEZO1; time 45 s): 0.1972
fluorescence (ΔFratio) (WT hPIEZO1; time 50 s): 0.2136
fluorescence (ΔFratio) (WT hPIEZO1; time 55 s): 0.2004
fluorescence (ΔFratio) (WT hPIEZO1; time 60 s): 0.1986
fluorescence (ΔFratio) (WT hPIEZO1; time 65 s): 0.1996
fluorescence (ΔFratio) (WT hPIEZO1; time 70 s): 0.1871
fluorescence (ΔFratio) (WT hPIEZO1; time 75 s): 0.1803
fluorescence (ΔFratio) (WT hPIEZO1; time 80 s): 0.1839
fluorescence (ΔFratio) (WT hPIEZO1; time 85 s): 0.1791
fluorescence (ΔFratio) (WT hPIEZO1; time 90 s): 0.1817
fluorescence (ΔFratio) (WT hPIEZO1; time 95 s): 0.1659
fluorescence (ΔFratio) (WT hPIEZO1; time 100 s): 0.1565
fluorescence (ΔFratio) (WT hPIEZO1; time 105 s): 0.1608
fluorescence (ΔFratio) (WT hPIEZO1; time 110 s): 0.1552
fluorescence (ΔFratio) (WT hPIEZO1; time 115 s): 0.1355
fluorescence (ΔFratio) (WT hPIEZO1; time 120 s): 0.1385
fluorescence (ΔFratio) (WT hPIEZO1; time 125 s): 0.172
SMILES: Clc1cccc(Cl)c1CSc1nnc(-c2cnccn2)s1 [Yoda1]

From PMC12337661, “PIEZO1 mechanical insensitivity in generalized lymphatic dysplasia with the potential for pharmacological rescue” (iScience, 2025)
